According to US20060069132A1, “Azolecarboxamide herbicides” (priority 2004, published 2006):

What was measured:
giant foxtail = assay: Test B pre-/postemergence herbicide test; type: in vivo, Setaria faberi; conditions: for Plant response rating (0 to 100 scale), Foxtail, Giant: 0 is no effect, 100 is complete control, preemergence
How it was run: (§1)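 Seeds were planted and treated preemergence with compounds formulated in a non-phytotoxic solvent mixture containing surfactant, while plants at the 1- to 4-leaf stage (2 to 18 cm) received postemergence sprays. Flooded paddy plants were grown to the 2-leaf stage. After 13 to 15 days in a greenhouse, injury was visually rated 0–100 against untreated controls.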

ducksalad = assay: Test B flooded paddy test; type: in vivo, Heteranthera limosa; conditions: 1000 g ai/ha, scale 0 to 100 (0 no effect, 100 complete control)
How it was run: (§2)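 Postemergence plants were sprayed with formulated test chemicals at 2 to 18 cm height (1- to 4-leaf stage); paddy species were grown to the 2-leaf stage. After 13 to 15 days in a greenhouse, injury was rated visually against untreated controls on a 0–100 scale (0 = no effect, 100 = complete control).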

wheat = assay: Test B postemergence herbicide test; type: in vivo, Triticum aestivum; set-up: key to Wheat plant response rating: 0 = no effect, 100 = complete control
How it was run: (§3)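 Scale 0–100: zero equals no visible effect, 100 complete control, judged by eye relative to controls. Timing: 13 to 15 days in greenhouse post-treatment. Growth stage at spraying: two leaves (paddy) or one to four leaves, 2–18 cm (postemergence).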

barnyardgrass [1] = assay: Test B pre-/postemergence herbicide test; type: in vivo, Echinochloa crus-galli; conditions: for Plant response rating (0 to 100 scale), Barnyardgrass: 0 is no effect, 100 is complete control, preemergence; for Barnyardgrass plant response rating: Postemergence, scale 0 (no effect) to 100 (complete control)
How it was run: as §1

corn = assay: Test B pre-/postemergence herbicide test; type: in vivo, Zea mays; conditions: for Plant response rating (0 to 100 scale), Corn: 0 is no effect, 100 is complete control, preemergence
How it was run: as §1

morningglory = assay: Test B pre-/postemergence herbicide test; type: in vivo, Ipomoea coccinea; conditions: for Plant response rating (0 to 100 scale), Morningglory: 0 is no effect, 100 is complete control, preemergence
How it was run: as §1

barnyardgrass [2] = assay: Test B flooded paddy test; type: in vivo, Echinochloa crus-galli; conditions: 1000 g ai/ha, scale 0 to 100 (0 no effect, 100 complete control)
How it was run: as §2

Surinam grass = assay: Test B pre-/postemergence herbicide test; type: in vivo, Urochloa decumbens; conditions: for Plant response rating (0 to 100 scale), Surinam Grass: 0 is no effect, 100 is complete control, preemergence
How it was run: as §1

large crabgrass = assay: Test B pre-/postemergence herbicide test; type: in vivo, Digitaria sanguinalis; conditions: for Plant response rating (0 to 100 scale), Crabgrass, Large: 0 is no effect, 100 is complete control, preemergence
How it was run: as §1

blackgrass = assay: Test B postemergence herbicide test; type: in vivo, Alopecurus myosuroides
How it was run: as §2

velvetleaf = assay: Test B pre-/postemergence herbicide test; type: in vivo, Abutilon theophrasti; conditions: for Plant response rating (0 to 100 scale), Velvetleaf: 0 is no effect, 100 is complete control, preemergence
How it was run: as §1

lambsquarters = assay: Test B pre-/postemergence herbicide test; type: in vivo, Chenopodium album; conditions: for Plant response rating (0 to 100 scale), Lambsquarters: 0 is no effect, 100 is complete control, preemergence
How it was run: as §1

rice = assay: Test B flooded paddy test; type: in vivo, Oryza sativa; conditions: 1000 g ai/ha, scale 0 to 100 (0 no effect, 100 complete control)
How it was run: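 Visual ratings, 0 (no effect) to 100 (complete control), made versus controls after 13–15 d greenhouse. Paddy plants treated at 2-leaf stage; postemergence plants at 1- to 4-leaf stage, 2–18 cm tall.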

[3] = system: small flower umbrella sedge; assay: Test B flooded paddy test; type: in vivo, Cyperus difformis; conditions: 1000 g ai/ha, scale 0 to 100 (0 no effect, 100 complete control)
How it was run: as §2

pigweed = assay: Test B pre-/postemergence herbicide test; type: in vivo, Amaranthus retroflexus; conditions: for Plant response rating (0 to 100 scale), Pigweed: 0 is no effect, 100 is complete control, preemergence
How it was run: as §1

cocklebur = assay: Test B pre-/postemergence herbicide test; type: in vivo, Xanthium strumarium; conditions: for Plant response rating (0 to 100 scale), Cocklebur: 0 is no effect, 100 is complete control, preemergence
How it was run: as §1

wild oat = assay: Test B postemergence herbicide test; type: in vivo, Avena fatua
How it was run: as §3

[4] = Postemergence, 500 g ai/ha, scale 0 (no effect) to 100 (complete control)
[5] = postemergence, 125 g ai/ha, scale 0 to 100
[6] = 500 g ai/ha, scale 0 to 100, 0 no effect, 100 complete control, preemergence

CCNC(=O)c1ccnc(NC(=O)c2nn(C(C)(C)C)nc2C)c1 [Compound 424]
Plant response rating (0 to 100 scale), Foxtail, Giant (giant foxtail; 125 g ai/ha): 20
Foxtail, Giant plant response rating (giant foxtail; [4]): 30
Foxtail, Giant plant response rating (giant foxtail; [5]): 20
Ducksalad plant response rating (ducksalad): 70
Wheat plant response rating (wheat; [6]): 50
Wheat plant response rating (wheat; [4]): 0
Wheat plant response rating (wheat; [5]): 0
Plant response rating (0 to 100 scale), Barnyardgrass (barnyardgrass [1]; 125 g ai/ha): 20
Barnyardgrass plant response rating (barnyardgrass [1]; 125 g ai/ha): 10
Barnyardgrass plant response rating (barnyardgrass [1]; 500 g ai/ha): 30
Plant response rating (0 to 100 scale), Corn (corn; 125 g ai/ha): 0
Corn plant response rating (corn; [4]): 10
Corn plant response rating (corn; [5]): 0
Plant response rating (0 to 100 scale), Morningglory (morningglory; 125 g ai/ha): 10
Morningglory plant response rating (morningglory; [4]): 70
Morningglory plant response rating (morningglory; [5]): 30
Barnyardgrass plant response rating (barnyardgrass [2]): 40
Plant response rating (0 to 100 scale), Surinam Grass (Surinam grass; 125 g ai/ha): 30
Surinam Grass plant response rating (Surinam grass; [4]): 30
Surinam Grass plant response rating (Surinam grass; [5]): 20
Plant response rating (0 to 100 scale), Crabgrass, Large (large crabgrass; 125 g ai/ha): 90
Crabgrass, Large plant response rating (large crabgrass; [4]): 30
Crabgrass, Large plant response rating (large crabgrass; [5]): 10
Blackgrass plant response rating (blackgrass; [4]): 50
Blackgrass plant response rating (blackgrass; [5]): 0
Plant response rating (0 to 100 scale), Velvetleaf (velvetleaf; 125 g ai/ha): 20
Velvetleaf plant response rating (velvetleaf; [4]): 30
Velvetleaf plant response rating (velvetleaf; [5]): 30
Plant response rating (0 to 100 scale), Lambsquarters (lambsquarters; 125 g ai/ha): 70
Lambsquarters plant response rating (lambsquarters; [4]): 70
Lambsquarters plant response rating (lambsquarters; [5]): 40
Rice plant response rating (rice): 20
Sedge, Umbrella plant response rating [3]: 70
Plant response rating (0 to 100 scale), Pigweed (pigweed; 125 g ai/ha): 90
Pigweed plant response rating (pigweed; [4]): 60
Pigweed plant response rating (pigweed; [5]): 30
Plant response rating (0 to 100 scale), Cocklebur (cocklebur; 125 g ai/ha): 0
Cocklebur plant response rating (cocklebur; [4]): 30
Cocklebur plant response rating (cocklebur; [5]): 20
Oat, Wild plant response rating (wild oat; [4]): 0
Oat, Wild plant response rating (wild oat; [5]): 0

CCN(CC)C(=O)c1ccnc(NC(=O)c2nn(C(C)(C)C)nc2C)c1 [Compound 425]
Plant response rating (0 to 100 scale), Foxtail, Giant (giant foxtail; 125 g ai/ha): 20
Foxtail, Giant plant response rating (giant foxtail; [4]): 30
Foxtail, Giant plant response rating (giant foxtail; [5]): 20
Ducksalad plant response rating (ducksalad): 70
Wheat plant response rating (wheat; [6]): 30
Wheat plant response rating (wheat; [4]): 0
Wheat plant response rating (wheat; [5]): 0
Plant response rating (0 to 100 scale), Barnyardgrass (barnyardgrass [1]; 125 g ai/ha): 10
Barnyardgrass plant response rating (barnyardgrass [1]; 125 g ai/ha): 10
Barnyardgrass plant response rating (barnyardgrass [1]; 500 g ai/ha): 20
Plant response rating (0 to 100 scale), Corn (corn; 125 g ai/ha): 0
Corn plant response rating (corn; [4]): 20
Corn plant response rating (corn; [5]): 10
Plant response rating (0 to 100 scale), Morningglory (morningglory; 125 g ai/ha): 0
Morningglory plant response rating (morningglory; [4]): 80
Morningglory plant response rating (morningglory; [5]): 70
Barnyardgrass plant response rating (barnyardgrass [2]): 30
Plant response rating (0 to 100 scale), Surinam Grass (Surinam grass; 125 g ai/ha): 40
Surinam Grass plant response rating (Surinam grass; [4]): 20
Surinam Grass plant response rating (Surinam grass; [5]): 10
Plant response rating (0 to 100 scale), Crabgrass, Large (large crabgrass; 125 g ai/ha): 80
Crabgrass, Large plant response rating (large crabgrass; [4]): 30
Crabgrass, Large plant response rating (large crabgrass; [5]): 20
Blackgrass plant response rating (blackgrass; [4]): 20
Blackgrass plant response rating (blackgrass; [5]): 0
Plant response rating (0 to 100 scale), Velvetleaf (velvetleaf; 125 g ai/ha): 20
Velvetleaf plant response rating (velvetleaf; [4]): 30
Velvetleaf plant response rating (velvetleaf; [5]): 20
Plant response rating (0 to 100 scale), Lambsquarters (lambsquarters; 125 g ai/ha): 80
Lambsquarters plant response rating (lambsquarters; [4]): 70
Lambsquarters plant response rating (lambsquarters; [5]): 60
Rice plant response rating (rice): 20
Sedge, Umbrella plant response rating [3]: 70
Plant response rating (0 to 100 scale), Pigweed (pigweed; 125 g ai/ha): 70
Pigweed plant response rating (pigweed; [4]): 70
Pigweed plant response rating (pigweed; [5]): 50
Plant response rating (0 to 100 scale), Cocklebur (cocklebur; 125 g ai/ha): 0
Cocklebur plant response rating (cocklebur; [4]): 20
Cocklebur plant response rating (cocklebur; [5]): 10
Oat, Wild plant response rating (wild oat; [4]): 0
Oat, Wild plant response rating (wild oat; [5]): 0
